Literature values as cited in US20010053349A1, “Artificial nail sanitizing solution” (priority 2000, published 2001).

Test system: nail fungus
Settings: oral compounds; average; treatment of documented nail fungus

CN(C/C=C/C#CC(C)(C)C)Cc1cccc2ccccc12 [terbinafine]
Clinical and mycological cure rates: 70%
